Measured values: publication PMC8537897, “Design, Synthesis and Biological Evaluation of Aromatase Inhibitors Based on Sulfonates and Sulfonamides of Resveratrol” (Pharmaceuticals, 2021)
Like-named read-outs stand apart in the source and are kept apart here. One block for each compound: values may come before it.

Columns and labels:
[1] = target: T1, human aromatase (Homo sapiens, UniProt P11511); test: Aromatase inhibition, fluorimetric assay kit (Aromatase-CYP19A Inhibitor Screening kit, BioVision); format: biochemical; conditions: for Aromatase inhibition (in words): screening at 1 µM
T1 construct: purchased BioVision, Milpitas, CA, USA
T1 sequence (P11511 1-503): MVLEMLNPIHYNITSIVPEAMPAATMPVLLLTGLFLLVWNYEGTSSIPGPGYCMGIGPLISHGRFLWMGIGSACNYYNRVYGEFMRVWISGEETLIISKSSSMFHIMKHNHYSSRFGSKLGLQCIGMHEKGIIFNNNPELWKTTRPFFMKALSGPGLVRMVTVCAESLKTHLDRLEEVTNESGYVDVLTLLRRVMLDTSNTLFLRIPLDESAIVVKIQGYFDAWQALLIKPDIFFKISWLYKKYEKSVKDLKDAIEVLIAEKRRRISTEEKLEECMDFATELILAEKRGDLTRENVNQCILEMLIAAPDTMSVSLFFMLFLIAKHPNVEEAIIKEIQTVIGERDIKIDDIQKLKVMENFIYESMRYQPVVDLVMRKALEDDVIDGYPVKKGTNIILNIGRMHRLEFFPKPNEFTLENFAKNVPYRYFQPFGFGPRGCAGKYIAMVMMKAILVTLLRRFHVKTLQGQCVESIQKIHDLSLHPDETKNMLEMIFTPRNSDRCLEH
Experimental: The activity was measured each minute for 60 min and the value obtained for each compound after 10 min was chosen to calculate the percentage of the aromatase inhibition.
The aromatase inhibitory activity was determined using a commercial fluorimetric assay kit (Aromatase-CYP19A Inhibitor Screening kit, BioVision, Milpitas, CA, USA), as reported elsewhere. The assay utilizes a fluorogenic aromatase substrate that is converted into a highly fluorescent metabolite detected in the visible range (Ex/Em 488/527 nm). […] During the incubation, the Aromatase Substrate/NADP+ mixture was prepared, and the reaction was started by adding 30 µL of this solution to each well (aside from the background control), reaching a final reaction volume of 100 µL/well. The fluorescence emission (527 nm) was measured immediately (within 1 min) by means of a fluorometer equipped with a 488 nm filter (GloMax®-Multi Detection System, Promega, Madison, WI, USA) and afterwards monitored for 60 min. […] The assay was performed in the same experimental conditions used for the initial screening of compounds. Dose–response curves were fitted with GraphPad Prism 5.0 (GraphPad Software, San Diego, CA, USA).

[2] = system: MCF7 breast cancer cell line; test: Cell metabolic activity / viability (MTT assay) on MCF7; format: cell-based, human; conditions: for IC50: Homo sapiens, MTT, tested 0 to 500 µM;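 as to all read-outs here: MTT optical density read-out in human MCF7 cells, normalised to DMSO vehicle-treated cells as 100%, with IC50 derived from fitted concentration–response curves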
Experimental: Human skin fibroblasts (HFF-1, CVCL_3285) and human breast cancer MCF7 (HTB-22™, CVCL_0031) were purchased from ATCC and maintained in Dulbecco’s modified Eagle’s medium (DMEM) high glucose (EuroClone, Milan, Italy) supplemented with 10% of fetal bovine serum (FBS) and 1% of penicillin/streptomycin (Gibco—Thermo Fisher Scientific, MD, USA).
Cell metabolic activity of HFF-1 and MCF7 cells was assessed by MTT (3-(4,5-Dimethylthiazol-2-yl)-2,5-Diphenyltetrazolium Bromide) test (Sigma Aldrich, Milan, Italy). […] After the established exposure times, cells were incubated with MTT (0.5 mg/mL) and the optical density was measured as reported elsewhere [63]. Results were expressed as the percentage of cells in the presence of vehicle (DMSO) set as 100% and each experiment was performed in triplicate (n = 3). Concentration–response curves and IC50 were fitted and calculated with GraphPad Prism 5.0 (GraphPad Software, San Diego, CA, USA).

[3] = system: MCF7 cells; test: Cytotoxicity test (lactate dehydrogenase release); format: cell-based, human; conditions: MCF7, 0–250 µM, 24 h
Experimental: To assess whether the decrease in metabolic activity is a consequence of cytotoxic occurrence in the presence of compounds 1b, 1c, and 1j, lactate dehydrogenase (LDH) released from MCF7 was measured in response to loading concentrations of 0–250 µM after a 24 h exposure. […] It is, therefore, plausible to assume that all tested compounds exert their anti-proliferative effect on MCF7 cells through cytotoxic induction and 1c is the most promising compound, being active already at lower doses.
MCF7 cells were seeded and stimulated as previously described for the MTT test. After the exposure time, cell supernatants were collected, centrifuged at 450× g for 4 min, and stored on ice. In order to quantify the cytotoxicity of loading concentrations of compounds 1b, 1c, and 1j (0–250 µM), the CytoTox 96® Non-Radioactive Cytotoxicity Assay (Promega Corporation, Madison, WI, USA) was performed as previously reported. The results were normalized on MTT absorbances and expressed as fold increases on the LDH released by cultures in the presence of vehicle (DMSO) set as 1.

[4] = MCF7, 24 h, 24 h, read-out: MCF7 Cells IC50 24 h
[5] = MCF7, 72 h, 72 h, read-out: MCF7 Cells IC50 72 h

melting point: 250 to 251 °C
Structure (SMILES): CS(=O)(=O)Nc1ccc(/C=C/c2ccccc2)cc1 [2h, N-{4-[(E)-2-Phenylvinyl]phenyl}methanesulfonamide]

Aromatase inhibition (in words) [1]: inactive
melting point: 200 to 202 °C
Structure (SMILES): O=S(=O)(Nc1ccc(/C=C/c2ccccc2)cc1)c1ccc(Cl)s1 [2k, 5-Chloro-N-{4-[(E)-2-phenylvinyl]phenyl}thiophene-2-sulfonamide]

inhibition at 1 µM [1]: 60.3%
melting point: 160 to 162 °C
Structure (SMILES): O=S(=O)(Oc1ccc(/C=C/c2ccccc2)cc1)c1ccc(Cl)s1 [1k, 4-[(E)-2-Phenylvinyl]phenyl 5-chlorothiophene-2-sulfonate]

melting point: 230 to 231 °C
Structure (SMILES): CCS(=O)(=O)Nc1ccc(/C=C/c2ccccc2)cc1 [2i, N-{4-[(E)-2-Phenylvinyl]phenyl}ethanesulfonamide]

inhibition at 1 µM [1]: 44.8%
melting point: 246 to 247 °C
Structure (SMILES): Cc1ccc(S(=O)(=O)Nc2ccc(/C=C/c3ccccc3)cc2)cc1[N+](=O)[O-] [2c, 4-Methyl-3-nitro-N-{4-[(E)-2-phenylvinyl]phenyl}benzenesulfonamide]

melting point: 213 to 215 °C
Structure (SMILES): COc1ccc(S(=O)(=O)Nc2ccc(/C=C/c3ccccc3)cc2)c(OC)c1 [2g, 2,4-Dimethoxy-N-{4-[(E)-2-phenylvinyl]phenyl}benzenesulfonamide]

melting point: 182 to 183 °C
Structure (SMILES): Cc1ccc(S(=O)(=O)Nc2ccc(/C=C/c3ccccc3)cc2)cc1 [2d, 4-Methyl-N-{4-[(E)-2-phenylvinyl]phenyl}benzenesulfonamide]

melting point: 141 to 142 °C
Structure (SMILES): COc1ccc(S(=O)(=O)Oc2ccc(/C=C/c3ccccc3)cc2)c(OC)c1 [1g, 4-[(E)-2-Phenylvinyl]phenyl 2,4-dimethoxybenzenesulfonate]

inhibition at 1 µM [1]: 56.1%
Structure (SMILES): N#Cc1ccc(S(=O)(=O)Oc2ccc(/C=C/c3ccccc3)cc2)cc1 [1e, 4-[(E)-2-Phenylvinyl]phenyl 4-cyanobenzenesulfonate]

IC50 [2, 4]: > 250 µM
IC50 [2, 5]: 83 ± 3.8 µM
Structure (SMILES): Oc1ccc(/C=C/c2cc(O)cc(O)c2)cc1 [RSV, trans-3,4′,5-trihydroxystilbene, reference compound]
Viability (% of control) - 24 h ([2]; MCF7, 10 µM, 24 h): 80.27 ± 3.18 % of control
Viability (% of control) - 72 h ([2]; MCF7, 10 µM, 72 h): 91.92 ± 5.44 % of control
Viability (% of control) - 24 h ([2]; MCF7, 25 µM, 24 h): 84.94 ± 6.59 % of control
Viability (% of control) - 72 h ([2]; MCF7, 25 µM, 72 h): 73.93 ± 9.52 % of control
Viability (% of control) - 24 h ([2]; MCF7, 50 µM, 24 h): 87.44 ± 1.93 % of control
Metabolically active cells ([2]; MCF7, 50 µM, 24 h, DMSO alone = 100%): slightly active at this concentration
Viability (% of control) - 72 h ([2]; MCF7, 50 µM, 72 h): 66.54 ± 5.77 % of control
Viability (% of control) - 24 h ([2]; MCF7, 100 µM, 24 h): 78.29 ± 4.03 % of control
Viability (% of control) - 72 h ([2]; MCF7, 100 µM, 72 h): 47.75 ± 2.67 % of control
Viability (% of control) - 24 h ([2]; MCF7, 250 µM, 24 h): 60.29 ± 0.93 % of control
Viability (% of control) - 72 h ([2]; MCF7, 250 µM, 72 h): 38.05 ± 8.70 % of control
Viability (% of control) - 24 h ([2]; MCF7, 500 µM, 24 h): 34.30 ± 5.01 % of control
Viability (% of control) - 72 h ([2]; MCF7, 500 µM, 72 h): 15.33 ± 4.88 % of control

inhibition at 1 µM [1]: 97%
IC50 ([1]; tested at concentrations from 0.01 to 100 μM, mean of triplicate determinations): 2.51 µM
IC50 [2, 4]: 159 ± 9.9 µM
IC50 [2, 5]: 240 ± 6.7 µM
melting point: 152 to 155 °C
Structure (SMILES): O=[N+]([O-])c1cccc(S(=O)(=O)Oc2ccc(/C=C/c3ccccc3)cc2)c1 [1b, 4-[(E)-2-Phenylvinyl]phenyl 3-nitrobenzenesulfonate]
Viability (% of control) - 24 h ([2]; MCF7, 10 µM, 24 h): 69.32 ± 14.99 % of control
Viability (% of control) - 72 h ([2]; MCF7, 10 µM, 72 h): 98.33 ± 5.24 % of control
Viability (% of control) - 24 h ([2]; MCF7, 25 µM, 24 h): 79.12 ± 9.66 % of control
Viability (% of control) - 72 h ([2]; MCF7, 25 µM, 72 h): 99.99 ± 9.30 % of control
Viability (% of control) - 24 h ([2]; MCF7, 50 µM, 24 h): 80.69 ± 4.08 % of control
Viability (% of control) - 72 h ([2]; MCF7, 50 µM, 72 h): 93.39 ± 5.39 % of control
Viability (% of control) - 24 h ([2]; MCF7, 100 µM, 24 h): 73.93 ± 1.87 % of control
Viability (% of control) - 72 h ([2]; MCF7, 100 µM, 72 h): 77.31 ± 7.02 % of control
Viability (% of control) - 24 h ([2]; MCF7, 250 µM, 24 h): 45.57 ± 3.42 % of control
Viability (% of control) - 72 h ([2]; MCF7, 250 µM, 72 h): 57.01 ± 1.01 % of control
Viability (% of control) - 24 h ([2]; MCF7, 500 µM, 24 h): 35.83 ± 2.22 % of control
Viability (% of control) - 72 h ([2]; MCF7, 500 µM, 72 h): 36.11 ± 0.35 % of control
LDH release, dose dependence (in words) [3]: raises only at the highest concentration administered (250 µM)

melting point: 238 to 239 °C
Structure (SMILES): N#Cc1ccc(S(=O)(=O)Nc2ccc(/C=C/c3ccccc3)cc2)cc1 [2e, 4-Cyano-N-{4-[(E)-2-phenylvinyl]phenyl}benzenesulfonamide]

melting point: 230 to 231 °C
Structure (SMILES): CC(=O)Nc1ccc(S(=O)(=O)Nc2ccc(/C=C/c3ccccc3)cc2)cc1 [2f, N-{4-[({4-[(E)-2-Phenylvinyl]phenyl}amino)sulfonyl]phenyl}acetamide]

inhibition at 1 µM [1]: 67.3%
melting point: 210 to 211 °C
Structure (SMILES): O=[N+]([O-])c1cccc(S(=O)(=O)Nc2ccc(/C=C/c3ccccc3)cc2)c1 [2b, 3-Nitro-N-{4-[(E)-2-phenylvinyl]phenyl}benzenesulfonamide]

inhibition at 1 µM [1]: 100%
melting point: 112 to 114 °C
Structure (SMILES): CCS(=O)(=O)Oc1ccc(/C=C/c2ccccc2)cc1 [1i, 4-[(E)-2-Phenylvinyl]phenyl ethanesulfonate]

inhibition at 1 µM [1]: 47.8%
melting point: 160 to 162 °C
Structure (SMILES): O=S(=O)(Nc1ccc(/C=C/c2ccccc2)cc1)c1ccccc1 [2a, N-{4-[(E)-2-Phenylvinyl]phenyl}benzenesulfonamide]

Aromatase inhibition (in words) [1]: very low activity
melting point: 127 to 130 °C
Structure (SMILES): O=S(=O)(Oc1ccc(/C=C/c2ccccc2)cc1)c1ccccc1 [1a, 4-[(E)-2-Phenylvinyl]phenylbenzenesulfonate]
